Data as given in patent publication US8975398B2, “NAMPT inhibitors” (AbbVie Inc., priority 2012, dated 2015).

Assays:
[1] = target: NAMPT (human, recombinant, C-terminally His-tagged) (Homo sapiens, UniProt P43490); experiment: Time-Resolved Fluorescence Resonance Energy Transfer (TR-FRET) Binding Assay of NAMPT; details: 6.8 nM NAMPT, 200 nM probe, equilibrated 3 hours, absence of substrates
Summary of the method: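 Probe displacement measured by TR-FRET (Ex 337 nm; 520/495 nm ratio) after 3 h room-temperature equilibration of compound with 6.8 nM His-tagged human NAMPT, 1 nM Tb-anti-His antibody and 200 nM Oregon Green 488 nicotinamide-site probe, pH 7.5 HEPES buffer, 2% DMSO. Control-normalized data fit four-parameter logistic for IC50.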

NAMPT = NAMPT (Homo sapiens, UniProt P43490); experiment: Time-Resolved Fluorescence Resonance Energy Transfer (TR-FRET) Binding Assay of NAMPT with PRPP; details: 2 nM NAMPT, 2 nM probe, 200 uM PRPP and 2.5 mM ATP, equilibrated 16 hours
Chain of NAMPT (P43490 whole entry): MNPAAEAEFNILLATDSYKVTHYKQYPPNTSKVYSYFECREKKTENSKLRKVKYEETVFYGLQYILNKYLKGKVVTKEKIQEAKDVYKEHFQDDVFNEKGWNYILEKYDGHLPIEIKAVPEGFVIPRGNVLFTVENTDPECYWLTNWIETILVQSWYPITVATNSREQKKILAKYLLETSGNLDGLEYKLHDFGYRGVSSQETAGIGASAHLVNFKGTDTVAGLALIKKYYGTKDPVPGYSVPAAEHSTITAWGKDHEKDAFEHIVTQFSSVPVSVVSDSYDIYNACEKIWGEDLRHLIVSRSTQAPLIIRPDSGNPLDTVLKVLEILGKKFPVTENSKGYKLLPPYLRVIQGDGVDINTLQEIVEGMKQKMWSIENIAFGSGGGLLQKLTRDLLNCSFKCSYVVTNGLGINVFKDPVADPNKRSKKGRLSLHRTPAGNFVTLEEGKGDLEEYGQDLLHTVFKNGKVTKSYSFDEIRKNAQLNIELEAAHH
Summary of the method: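 Binding measured by TR-FRET after a 16-hour equilibration meant to permit enzymatic compound modification. Substrates present at 200 uM PRPP and 2.5 mM ATP, with 2 nM enzyme, 2 nM probe, 1 nM Tb-anti-His antibody and 2% DMSO final.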

Chain of NAMPT (human, recombinant, C-terminally His-tagged) (P43490 whole entry): as above

| SMILES | IC50 [1] [nM] | IC50 (NAMPT) [nM] |
| --- | --- | --- |
| Cc1ncccc1N1CC(C(=O)Nc2ccc(C3CCN(C(=O)CCN4CCOCC4)CC3)cc2)C1 [Example 184, 1-(2-methylpyridin-3-yl)-N-(4-{1-[3-(morpholin-4-yl)propanoyl]piperidin-4-yl}phenyl)azetidine-3-carboxamide] | 625 | 78.9 |
| CC(C)(C)CC(=O)N1CCC(Oc2ccc(NC(=O)C3CN(c4cccnc4)C3)cc2)CC1 [Example 41, N-(4-{[1-(3,3-dimethylbutanoyl)piperidin-4-yl]oxy}phenyl)-1-(pyridin-3-yl)azetidine-3-carboxamide] | 69.2 | 0.78 |
| CC(=O)N[C@@H](CC(C)C)C(=O)N1CCC(c2ccc(NC(=O)C3CN(c4cccnc4C)C3)cc2)CC1 [Example 180, N-{4-[1-(N-acetyl-L-leucyl)piperidin-4-yl]phenyl}-1-(2-methylpyridin-3-yl)azetidine-3-carboxamide] | 304 | 123 |
| CC1(C(=O)N2CCC(c3ccc(NC(=O)C4CN(c5cccnc5)C4)cc3)CC2)CCCCC1 [Example 117, N-(4-{1-[(1-methylcyclohexyl)carbonyl]piperidin-4-yl}phenyl)-1-(pyridin-3-yl)azetidine-3-carboxamide] | 6.27 | 0.355 |
| O=C(Nc1ccc(OC2CN(C(=O)c3ccoc3)C2)cc1)C1CN(c2ccnnc2)C1 [Example 209, N-(4-{[1-(furan-3-ylcarbonyl)azetidin-3-yl]oxy}phenyl)-1-(pyridazin-4-yl)azetidine-3-carboxamide] | 61.7 | 28.9 |
| COCC(=O)N1CCC(c2ccc(NC(=O)C3CN(c4cccnc4C)C3)cc2)CC1 [Example 195, N-{4-[1-(methoxyacetyl)piperidin-4-yl]phenyl}-1-(2-methylpyridin-3-yl)azetidine-3-carboxamide] | 305 | 94.1 |
| Cc1ncccc1N1CC(C(=O)Nc2ccc(C3CCN(C(=O)[C@@H]4CCC(=O)N4)CC3)cc2)C1 [Example 174, 1-(2-methylpyridin-3-yl)-N-{4-[1-(5-oxo-L-prolyl)piperidin-4-yl]phenyl}azetidine-3-carboxamide] | 2100 | 158 |
| Cc1ncccc1N1CC(C(=O)Nc2ccc(OC3CCN(C(=O)CC4CCOCC4)CC3)cc2)C1 [Example 4, 1-(2-methylpyridin-3-yl)-N-(4-{[1-(tetrahydro-2H-pyran-4-ylacetyl)piperidin-4-yl]oxy}phenyl)azetidine-3-carboxamide] | 424 | 24 |
| O=C(Nc1ccc(C2CCN(C(=O)c3ccc(C(F)(F)F)cc3)CC2)cc1)C1CN(c2cccnn2)C1 [Example 355, 1-(pyridazin-3-yl)-N-(4-{1-[4-(trifluoromethyl)benzoyl]piperidin-4-yl}phenyl)azetidine-3-carboxamide] | 115 | 0.986 |
| Cc1ncccc1N1CC(C(=O)Nc2ccc(C3CCN(C(=O)c4cccnn4)CC3)cc2)C1 [Example 158, 1-(2-methylpyridin-3-yl)-N-{4-[1-(pyridazin-3-ylcarbonyl)piperidin-4-yl]phenyl}azetidine-3-carboxamide] | 2900 | 224 |
| COCC(=O)N1CCC(Oc2ccc(NC(=O)C3CN(c4cccnc4)C3)cc2)CC1 [Example 57, N-(4-{[1-(methoxyacetyl)piperidin-4-yl]oxy}phenyl)-1-(pyridin-3-yl)azetidine-3-carboxamide] | 180 | 1.07 |
| O=C(Nc1ccc(C2CCN(C(=O)c3cccc(O)c3)CC2)cc1)C1CN(c2cccnn2)C1 [Example 343, N-{4-[1-(3-hydroxybenzoyl)piperidin-4-yl]phenyl}-1-(pyridazin-3-yl)azetidine-3-carboxamide] | 6.18 | 0.728 |
| O=C(Nc1ccc(OC2CCN(C(=O)C3CCOC3)CC2)cc1)C1CN(c2ccnnc2)C1 (centres unmarked) [Example 298, 1-(pyridazin-4-yl)-N-(4-{[1-(tetrahydrofuran-3-ylcarbonyl)piperidin-4-yl]oxy}phenyl)azetidine-3-carboxamide] | 192 | 61.1 |
| CC(=O)N1CCC(C(=O)N2CCC(c3ccc(NC(=O)C4CN(c5cccnn5)C4)cc3)CC2)CC1 [Example 383, N-(4-{1-[(1-acetylpiperidin-4-yl)carbonyl]piperidin-4-yl}phenyl)-1-(pyridazin-3-yl)azetidine-3-carboxamide] | 103 | 0.859 |
| CCC(=O)N1CCC(c2ccc(NC(=O)C3CN(c4cccnc4)C3)cc2)CC1 [Example 121, N-[4-(1-propanoylpiperidin-4-yl)phenyl]-1-(pyridin-3-yl)azetidine-3-carboxamide] | 9.94 | 0.169 |
| O=C1CC[C@H](C(=O)N2CCC(c3ccc(NC(=O)C4CN(c5cccnc5)C4)cc3)CC2)N1 [Example 106, N-{4-[1-(5-oxo-D-prolyl)piperidin-4-yl]phenyl}-1-(pyridin-3-yl)azetidine-3-carboxamide] | 160 | 0.221 |

| SMILES | IC50 [1] [nM] | IC50 (NAMPT) [nM] |
| --- | --- | --- |
| CCC(C)(C)CN1CCC(Oc2ccc(NC(=O)C3CN(c4cccnc4)C3)cc2)CC1 [Example 84, N-(4-{[1-(2,2-dimethylbutyl)piperidin-4-yl]oxy}phenyl)-1-(pyridin-3-yl)azetidine-3-carboxamide] | 6070 | 1.81 |
| O=C(Nc1ccc(OC2CCN(C(=O)c3cscn3)CC2)cc1)C1CN(c2ccnnc2)C1 [Example 272, 1-(pyridazin-4-yl)-N-(4-{[1-(1,3-thiazol-4-ylcarbonyl)piperidin-4-yl]oxy}phenyl)azetidine-3-carboxamide] | 165 | 52.4 |
| O=C(Nc1ccc(OC2CCN(C(=O)CC(F)(F)F)CC2)cc1)C1CN(c2cccnc2)C1 [Example 55, 1-(pyridin-3-yl)-N-(4-{[1-(3,3,3-trifluoropropanoyl)piperidin-4-yl]oxy}phenyl)azetidine-3-carboxamide] | 168 | 2.22 |
| O=C(Nc1ccc(OC2CCN(C(=O)C(F)(F)c3ccccc3)CC2)cc1)C1CN(c2ccnnc2)C1 [Example 269, N-[4-({1-[difluoro(phenyl)acetyl]piperidin-4-yl}oxy)phenyl]-1-(pyridazin-4-yl)azetidine-3-carboxamide] | 37.7 | 22.3 |
| Cc1ncccc1N1CC(C(=O)Nc2ccc(C3CCN(C(=O)c4ccco4)CC3)cc2)C1 [Example 189, N-{4-[1-(furan-2-ylcarbonyl)piperidin-4-yl]phenyl}-1-(2-methylpyridin-3-yl)azetidine-3-carboxamide] | 6.91 | 26.9 |
| CC(=O)N[C@@H](CC(C)C)C(=O)N1CCC(Oc2ccc(NC(=O)C3CN(c4cccnc4)C3)cc2)CC1 [Example 47, N-(4-{[1-(N-acetyl-L-leucyl)piperidin-4-yl]oxy}phenyl)-1-(pyridin-3-yl)azetidine-3-carboxamide] | 80.5 | 1.78 |
| O=C(Nc1ccc(C2CCN(C(=O)c3nccs3)CC2)cc1)C1CN(c2cccnc2)C1 [Example 108, 1-(pyridin-3-yl)-N-{4-[1-(1,3-thiazol-2-ylcarbonyl)piperidin-4-yl]phenyl}azetidine-3-carboxamide] | 3.33 | 0.176 |
| O=C(Nc1ccc(OC2CCN(C(=O)CC3C[C@@H]4CC[C@H]3C4)CC2)cc1)C1CN(c2cccnc2)C1 (stereo partly drawn) [Example 36, N-[4-({1-[(1S,4R)-bicyclo[2.2.1]hept-2-ylacetyl]piperidin-4-yl}oxy)phenyl]-1-(pyridin-3-yl)azetidine-3-carboxamide] | 40.1 | 0.882 |
| CCC(C)(C)C(=O)N1CCC(Oc2ccc(NC(=O)C3CN(c4cccnc4)C3)cc2)CC1 [Example 40, N-(4-{[1-(2,2-dimethylbutanoyl)piperidin-4-yl]oxy}phenyl)-1-(pyridin-3-yl)azetidine-3-carboxamide] | 42.8 | 0.49 |
| CC(C)CC(=O)N1CCC(c2ccc(NC(=O)C3CN(c4cccnn4)C3)cc2)CC1 [Example 320, N-{4-[1-(3-methylbutanoyl)piperidin-4-yl]phenyl}-1-(pyridazin-3-yl)azetidine-3-carboxamide] | 26.4 | 0.611 |
| O=C(Nc1ccc(OC2CN(C(=O)C3CCC3)C2)cc1)C1CN(c2ccnnc2)C1 [Example 261, N-(4-{[1-(cyclobutylcarbonyl)azetidin-3-yl]oxy}phenyl)-1-(pyridazin-4-yl)azetidine-3-carboxamide] | 62.9 | 23.7 |
| CC(C)(O)C(=O)N1CCC(Oc2ccc(NC(=O)C3CN(c4cccnc4)C3)cc2)CC1 [Example 31, N-(4-{[1-(2-hydroxy-2-methylpropanoyl)piperidin-4-yl]oxy}phenyl)-1-(pyridin-3-yl)azetidine-3-carboxamide] | 135 | 0.693 |
| O=C(Nc1ccc(OC2CCN(C(=O)c3nccs3)CC2)cc1)C1CN(c2cccnc2)C1 [Example 68, 1-(pyridin-3-yl)-N-(4-{[1-(1,3-thiazol-2-ylcarbonyl)piperidin-4-yl]oxy}phenyl)azetidine-3-carboxamide] | 80.6 | 0.569 |
| CC(C)(C)CC(=O)N1CCC(c2ccc(NC(=O)C3CN(c4ccnnc4)C3)cc2)CC1 [Example 140, N-{4-[1-(3,3-dimethylbutanoyl)piperidin-4-yl]phenyl}-1-(pyridazin-4-yl)azetidine-3-carboxamide] | 11 | 8.87 |
| O=C(Nc1ccc(C2CCN(C(=O)c3ccc(O)cc3)CC2)cc1)C1CN(c2cccnn2)C1 [Example 344, N-{4-[1-(4-hydroxybenzoyl)piperidin-4-yl]phenyl}-1-(pyridazin-3-yl)azetidine-3-carboxamide] | 37.8 | 0.569 |
